# Target: SARS-CoV-2 3CLpro (Severe acute respiratory syndrome coronavirus 2, UniProt P0DTD1)
# Type: biochemical
# Settings: pH 7.5
row,Compound,Activity of SARS-CoV-2 MPro inhibitors
1,CC(C)O[C@@H]1C[C@@H](C(=O)NC(C[C@@H]2CCNC2=O)C(=O)C(=O)c2ccccc2)N(C(=O)[C@@H](NC(=O)C(F)(F)F)C(C)(C)C)C1 (stereo partly shown) [Compound 2],A+++ (key: A >100 μM; A+ <50 μM; A++ <10 μM; A+++ <1 μM)
2,CC(C)(C)[C@H](NC(=O)CCc1ccccc1)C(=O)N1Cc2ccccc2C[C@H]1C(=O)N[C@@H](C[C@@H]1CCNC1=O)C(=O)C(=O)c1ccccc1 [Compound 17],A+++ (key: A >100 μM; A+ <50 μM; A++ <10 μM; A+++ <1 μM)
3,CC(C)(C)[C@H](NC(=O)C(Cl)(Cl)Cl)C(=O)N1C[C@H]2[C@@H]([C@H]1C(=O)NC(C[C@@H]1CCNC1=O)C(=O)C(=O)c1ccccc1)C2(C)C (stereo partly shown) [Compound 4],A++ (key: A >100 μM; A+ <50 μM; A++ <10 μM; A+++ <1 μM)
4,CC(C)(C)[C@H](NC(=O)C(F)(F)F)C(=O)N1Cc2ccccc2C[C@H]1C(=O)N[C@@H](C[C@@H]1CCNC1=O)C(=O)C(=O)c1ccccc1 [Compound 12],A+++ (key: A >100 μM; A+ <50 μM; A++ <10 μM; A+++ <1 μM)
5,Cc1cc(C)cc(C(=O)C(=O)[C@H](C[C@@H]2CCNC2=O)NC(=O)C2[C@@H]3[C@H](CN2C(=O)C(NC(=O)C(F)(F)F)C(C)(C)C)C3(C)C)c1 (stereo partly shown) [Compound 10],A+++ (key: A >100 μM; A+ <50 μM; A++ <10 μM; A+++ <1 μM)
6,Cc1ccc(C(=O)C(=O)[C@H](C[C@@H]2CCNC2=O)NC(=O)C2[C@@H]3[C@H](CN2C(=O)C(NC(=O)C(F)(F)F)C(C)(C)C)C3(C)C)cc1 (stereo partly shown) [Compound 5],A+++ (key: A >100 μM; A+ <50 μM; A++ <10 μM; A+++ <1 μM)
7,CCCC(=O)C(=O)[C@H](C[C@@H]1CCNC1=O)NC(=O)C1[C@@H]2[C@H](CN1C(=O)C(NC(=O)C(F)(F)F)C(C)(C)C)C2(C)C (stereo partly shown) [Compound 11],A+++ (key: A >100 μM; A+ <50 μM; A++ <10 μM; A+++ <1 μM)
8,COc1ccccc1C(=O)C(=O)[C@H](C[C@@H]1CCNC1=O)NC(=O)C1[C@@H]2[C@H](CN1C(=O)C(NC(=O)C(F)(F)F)C(C)(C)C)C2(C)C (stereo partly shown) [Compound 15],A+++ (key: A >100 μM; A+ <50 μM; A++ <10 μM; A+++ <1 μM)
9,CCCC(=O)C(=O)[C@H](C[C@@H]1CCNC1=O)NC(=O)[C@@H]1Cc2ccccc2CN1C(=O)[C@@H](NC(=O)OCc1ccncc1)C(C)(C)C [Compound 16],A+++ (key: A >100 μM; A+ <50 μM; A++ <10 μM; A+++ <1 μM)
10,CC(C)(C)C(NC(=O)C(Cl)(Cl)Cl)C(=O)N1C[C@H]2[C@@H](C1C(=O)N[C@@H](C[C@@H]1CCNC1=O)C(=O)C(=O)c1ccccc1)C2(C)C (stereo partly shown) [Compound 9],A (key: A >100 μM; A+ <50 μM; A++ <10 μM; A+++ <1 μM)
11,CC(C)(C)C(NC(=O)C(F)(F)F)C(=O)N1C[C@H]2[C@@H](C1C(=O)N[C@@H](C[C@@H]1CCNC1=O)C(=O)C(=O)c1ccccc1)C2(C)C (stereo partly shown) [Compound 3],A+++ (key: A >100 μM; A+ <50 μM; A++ <10 μM; A+++ <1 μM)
12,CC(C)(C)[C@H](NC(=O)C(F)(F)F)C(=O)N1Cc2ccccc2C[C@H]1C(=O)NC(CC1CCCNC1=O)C(=O)C(=O)c1ccccc1 (stereo partly shown) [Compound 13],A+ (key: A >100 μM; A+ <50 μM; A++ <10 μM; A+++ <1 μM)
13,CC(C)(C)C(NC(=O)C(F)(F)F)C(=O)N1C[C@H]2[C@@H](C1C(=O)N[C@@H](C[C@@H]1CCNC1=O)C(=O)C(=O)c1ccncc1)C2(C)C (stereo partly shown) [Compound 20],A++ (key: A >100 μM; A+ <50 μM; A++ <10 μM; A+++ <1 μM)
14,COc1ccc(C(=O)C(=O)[C@H](C[C@@H]2CCNC2=O)NC(=O)C2[C@@H]3[C@H](CN2C(=O)C(NC(=O)C(F)(F)F)C(C)(C)C)C3(C)C)cc1 (stereo partly shown) [Compound 8],A+++ (key: A >100 μM; A+ <50 μM; A++ <10 μM; A+++ <1 μM)
15,CCCN(CCC)[C@@H]1C[C@@H](C(=O)NC(C[C@@H]2CCNC2=O)C(=O)C(=O)c2ccccc2)N(C(=O)[C@@H](NC(=O)C(F)(F)F)C(C)(C)C)C1 (stereo partly shown) [Compound 1],A+++ (key: A >100 μM; A+ <50 μM; A++ <10 μM; A+++ <1 μM)
16,CCCC(=O)C(=O)[C@H](C[C@@H]1CCNC1=O)NC(=O)[C@@H]1Cc2ccccc2CN1C(=O)[C@@H](NC(=O)C(F)(F)F)C(C)(C)C [Compound 14],A++ (key: A >100 μM; A+ <50 μM; A++ <10 μM; A+++ <1 μM)
17,CC(C)(C)OC(=O)NC(C(=O)N1C[C@H]2[C@@H](C1C(=O)N[C@@H](C[C@@H]1CCNC1=O)C(=O)C(=O)c1ccc(F)cc1)C2(C)C)C(C)(C)C (stereo partly shown) [Compound 6],A+++ (key: A >100 μM; A+ <50 μM; A++ <10 μM; A+++ <1 μM)
18,CC(C)(C)[C@H](NC(=O)/C=C/c1ccccc1)C(=O)N1Cc2ccccc2C[C@H]1C(=O)N[C@@H](C[C@@H]1CCNC1=O)C(=O)C(=O)c1ccccc1 [Compound 18],A+++ (key: A >100 μM; A+ <50 μM; A++ <10 μM; A+++ <1 μM)
19,CC(C)(C)C(NC(=O)C(F)(F)F)C(=O)N1C[C@H]2[C@@H](C1C(=O)N[C@@H](C[C@@H]1CCNC1=O)C(=O)C(=O)c1ccc(F)cc1)C2(C)C (stereo partly shown) [Compound 7],A+++ (key: A >100 μM; A+ <50 μM; A++ <10 μM; A+++ <1 μM)

# From patent US20240409510A1 (priority 2022, published 2024)
